Test results from patent publication US10335445B2, “Compositions and methods of antiallergic phorbol ester and phorbol derivatives as the main active ingredients from the seeds of aquilaria malaccensis” (WE-WIN APPLIED BIO-TECH CO., LTD., priority 2016, dated 2019).

Experiments:
[1] = system: RBL-2H3 cells; test: A23187-induced degranulation β-hexosaminidase release assay; assay type: cell-based; details: Rattus norvegicus, A23187 1 μM
Method: (§1) Cell culture: The mucosal mast cell-derived rat basophilic leukemia (RBL-2H3) cell line was purchased from the Bioresource Collection and Research Center (Hsin-Chu, Taiwan). Cells were grown in DMEM medium supplemented with 10% FBS and 100 U/mL penicillin plus 100 μg/mL streptomycin. Cells were cultured in 10 cm cell culture dishes at 37° C. in a humidified chamber with 5% CO2 in air.
(§2) Degranulation β-hexosaminidase assay induced by A23187 or antigen: The degree of A23187- and antigen-induced degranulation in RBL-2H3 cells was determined by a β-hexosaminidase release assay as described previously (Chen et al., J. Nat. Prod., 72, 950-953, 2009; Matsuda et al., Bioorg. Med. Chem., 12, 5891-5898, 2004) with following modifications. RBL-2H3 cells were seeded in a 96-well plate (2×10^4 cells/well) for A23187-induced and in 48-well plate (3×10^4 cells/well) for antigen-induced experiment. Cells were treated with various concentrations of the samples for 20 h. Dexamethasone (10 nM) was used as a positive control. The cells for the antigen-induced experiment were first sensitized with anti-DNP IgE (5 μg/mL) for at least 2 h. […] Absorbance was measured at 405 nm on a microplate reader (Multiskan Ascent, Thermo Scientific). The inhibition percentage of β-hexosaminidase release was calculated as the percentage of control value (untreated stimulated cells). […]

[2] = system: RBL-2H3 cells; test: antigen (DNP-BSA)-induced degranulation β-hexosaminidase release assay; assay type: cell-based; details: Rattus norvegicus
Method: as §1, §2

## CCCCCCC/C=C/C=C/C=C\C(=O)O[C@@H]1[C@@H](C)[C@@]2(O)[C@@H](C=C(CO)C[C@]3(O)C(=O)C(C)=C[C@@H]23)[C@@H]2C(C)(C)[C@]12OC(C)=O [phorbol ester I, 12-O-(2Z,4E,6E)-tetradeca-2,4,6-trienoylphorbol-13-acetate]
[1]
  IC50: 1.7 nM
[2]
  IC50: 11 nM
